Where a SMILES comes first, the peptide text is derived from it. [ ]: non-standard residue; d: D form. The star is where a group is joined. Palmitoyl = CCCCCCCCCCCCCCCC(=O)*; hLeu = CC(C)CC[C@H](N)C(=O)O
Target: T1, Interleukin-23 receptor (Homo sapiens, UniProt Q5VWK5)
T1 sequence (Q5VWK5 whole entry): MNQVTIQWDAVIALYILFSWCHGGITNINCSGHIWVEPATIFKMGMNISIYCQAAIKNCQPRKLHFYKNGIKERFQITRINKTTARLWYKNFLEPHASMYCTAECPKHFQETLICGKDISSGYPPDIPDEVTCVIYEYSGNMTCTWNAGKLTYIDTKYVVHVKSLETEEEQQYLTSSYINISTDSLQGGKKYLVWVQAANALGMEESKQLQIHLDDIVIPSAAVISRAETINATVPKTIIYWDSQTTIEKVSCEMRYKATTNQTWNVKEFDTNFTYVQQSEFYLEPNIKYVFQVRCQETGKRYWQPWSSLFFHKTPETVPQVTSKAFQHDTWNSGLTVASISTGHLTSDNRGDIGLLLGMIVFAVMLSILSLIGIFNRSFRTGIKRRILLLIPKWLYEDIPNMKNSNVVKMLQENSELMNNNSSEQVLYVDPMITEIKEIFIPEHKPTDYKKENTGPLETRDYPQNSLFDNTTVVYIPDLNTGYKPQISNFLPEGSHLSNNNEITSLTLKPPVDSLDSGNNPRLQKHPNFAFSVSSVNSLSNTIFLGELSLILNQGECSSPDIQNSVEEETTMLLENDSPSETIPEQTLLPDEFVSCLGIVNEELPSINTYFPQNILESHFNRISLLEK
Experiment: Inhibition of interleukin-23 binding to human interleukin-23 receptor incubated for 2 hrs by competitive binding ELISA

Row | SMILES | IC50
1 | CC(=O)N[C@@H](CS)C(=O)N[C@@H](C)C(=O)N[C@@H](CC(=O)O)C(=O)N[C@@H](Cc1c[nH]c2ccccc12)C(=O)N[C@H](C(=O)N[C@@H](CS)C(=O)N[C@@H](Cc1ccc(O)cc1)C(=O)N[C@@H](Cc1c[nH]c2ccccc12)C(=O)N[C@@H](Cc1cnc[nH]1)C(=O)N[C@H](C(=O)N[C@@H](Cc1ccccc1)C(=O)NCC(=O)N[C@@H](CCC(=O)O)C(=O)N[C@@H](CCCNC(=N)N)C(N)=O)[C@@H](C)O)C(C)C | < 0.5 µM
2 | COc1ccc(C[C@H](NC(=O)[C@@H](NC(=O)[C@H](CCC(N)=O)NC(=O)[C@H](Cc2c[nH]c3ccccc23)NC(=O)[C@@H](NC(=O)[C@H](CCC(N)=O)NC(=O)[C@@H](NC(=O)Cc2ccc(-c3ccccc3)cc2)C(C)(C)S)[C@@H](C)O)C(C)(C)S)C(=O)N[C@@H](Cc2ccc3ccccc3c2)C(=O)N[C@@](C)(CCCCN)C(=O)N[C@@H](CCCCNC(C)=O)C(=O)N[C@@H](CC(N)=O)C(=O)NCC(N)=O)cc1 | 0.1 to 1 µM
3 | CC(C)[C@H](NC(=O)[C@H](Cc1cnc[nH]1)NC(=O)[C@H](Cc1c[nH]c2ccccc12)NC(=O)[C@H](Cc1ccc(O)cc1)NC(=O)[C@H](CS)NC(=O)[C@H](CCC(=O)O)NC(=O)[C@H](Cc1c[nH]c2ccccc12)NC(=O)[C@H](CC(N)=O)NC(=O)CNC(=O)[C@@H](N)CS)C(=O)N[C@@H](Cc1ccc(O)cc1)C(=O)NCC(N)=O (H-CGNWECYWHVYG-NH2) | > 1 µM
4 | CC(=O)NC1C/C=C\CCC(C(=O)N[C@@H](Cc2ccc(O)cc2)C(=O)N[C@@H](Cc2c[nH]c3ccccc23)C(=O)N[C@@H](CCCNC(=N)N)C(=O)N[C@@H](CCCCN)C(=O)N[C@@H](Cc2ccccc2)C(=O)NCC(=O)NCCOCC(=O)N[C@H](CCCCN)C(N)=O)NC(=O)[C@H](CCC(N)=O)NC(=O)[C@H](Cc2c[nH]c3ccccc23)NC(=O)[C@H]([C@@H](C)O)NC(=O)[C@H](CCCNC(=N)N)NC1=O (stereo not given in full) | 0.1 to 1 µM
5 | CC(=O)N[C@@H](CS)C(=O)N[C@@H](CCCNC(=N)N)C(=O)N[C@@H](CC(=O)O)C(=O)N[C@@H](Cc1c[nH]c2ccccc12)C(=O)N[C@@H](CCC(N)=O)C(=O)N[C@@H](CS)C(=O)N[C@@H](Cc1ccc(O)cc1)C(=O)N[C@@H](Cc1c[nH]c2ccccc12)C(=O)N(C)[C@@H](CCCNC(=N)N)C(=O)N[C@@H](CCCCN)C(=O)N[C@@H](Cc1ccccc1)C(=O)NCC(=O)NCCOCCC(=O)N[C@H](CCCCN)C(N)=O | > 1 µM
6 | CC(=O)N[C@@H](CS)C(=O)N[C@@H](CCC(N)=O)C(=O)N[C@@H](CC(=O)O)C(=O)N[C@@H](Cc1c[nH]c2ccccc12)C(=O)N[C@@H](CCC(N)=O)C(=O)N[C@@H](CS)C(=O)N[C@@H](Cc1ccc(O)cc1)C(=O)N[C@@H](Cc1c[nH]c2ccccc12)C(=O)N[C@@H](CCCNC(=N)N)C(=O)N[C@@H](CCC(=O)O)C(=O)N[C@@H](CC(N)=O)C(=O)NCC(=O)NCCOCC(=O)N[C@H](CCCCN)C(N)=O | < 0.5 µM
7 | CC(=O)N[C@@H](CS)C(=O)N[C@@H](C)C(=O)N[C@@H](CC(=O)O)C(=O)N[C@@H](Cc1c[nH]c2ccccc12)C(=O)N[C@H](C(=O)N[C@@H](CS)C(=O)N[C@@H](Cc1ccc(O)cc1)C(=O)N[C@@H](Cc1c[nH]c2ccccc12)C(=O)N[C@@H](Cc1cnc[nH]1)C(=O)N[C@H](C(=O)N[C@@H](Cc1ccccc1)C(=O)NCC(=O)NCCC(=O)N[C@H](CCCCNC(=O)COCC(=O)NCCCC[C@@H](NC(=O)CCNC(=O)CNC(=O)[C@H](Cc1ccccc1)NC(=O)[C@@H](NC(=O)[C@H](Cc1cnc[nH]1)NC(=O)[C@H](Cc1c[nH]c2ccccc12)NC(=O)[C@H](Cc1ccc(O)cc1)NC(=O)[C@H](CS)NC(=O)[C@@H](NC(=O)[C@H](Cc1c[nH]c2ccccc12)NC(=O)[C@H](CC(=O)O)NC(=O)[C@H](C)NC(=O)[C@H](CS)NC(C)=O)C(C)C)[C@@H](C)O)C(=O)O)C(=O)O)[C@@H](C)O)C(C)C | 0.025 to 0.1 µM
8 | CCCCCCCCCCCCCCCC(=O)NCCCC[C@H](NC(=O)[C@H](CCC(=O)O)NC(=O)[C@H](CC(C)C)NC(=O)[C@H](Cc1c[nH]c2ccccc12)NC(=O)[C@H](Cc1ccc(O)cc1)NC(=O)[C@H](CS)NC(=O)[C@H](CCC(N)=O)NC(=O)[C@H](Cc1c[nH]c2ccccc12)NC(=O)[C@@H](NC(=O)[C@H](CCC(N)=O)NC(=O)[C@H](CS)NC(C)=O)[C@@H](C)O)C(=O)NCC(N)=O (Ac-CQTWQCYWLEK(Palmitoyl)G-NH2) | > 6 µM
9 | NC(=O)CNC(=O)[C@H](Cc1ccc(O)cc1)NC(=O)[C@H](Cc1cnc[nH]1)NC(=O)[C@H](Cc1cnc[nH]1)NC(=O)[C@H](Cc1c[nH]c2ccccc12)NC(=O)[C@H](Cc1ccc(O)cc1)NC(=O)[C@H](CS)NC(=O)[C@H](CCC(=O)O)NC(=O)[C@H](Cc1c[nH]c2ccccc12)NC(=O)[C@H](CC(N)=O)NC(=O)[C@H](CO)NC(=O)[C@@H](N)CS (H-CSNWECYWHHYG-NH2) | 0.5 to 1 µM
10 | CC(=O)N[C@@H](CS)C(=O)N[C@@H](C)C(=O)N[C@H](C(=O)N[C@@H](Cc1c[nH]c2ccccc12)C(=O)N[C@H](C(=O)N[C@@H](CS)C(=O)N[C@@H](Cc1ccc(O)cc1)C(=O)N[C@@H](Cc1c[nH]c2ccccc12)C(=O)N[C@@H](Cc1cnc[nH]1)C(=O)N[C@H](C(=O)N[C@@H](Cc1ccccc1)C(=O)NCC(N)=O)[C@@H](C)O)C(C)C)[C@@H](C)O | > 1 µM
11 | CC(=O)N[C@@H](CS)C(=O)N[C@@H](C)C(=O)N[C@@H](CC(=O)O)C(=O)N[C@@H](Cc1c[nH]c2ccccc12)C(=O)N[C@H](C(=O)N[C@@H](CS)C(=O)N[C@@H](Cc1ccc(O)cc1)C(=O)N[C@@H](Cc1c[nH]c2ccccc12)C(=O)N[C@@H](Cc1cnc[nH]1)C(=O)N[C@H](C(=O)N[C@@H](Cc1ccc(O)cc1)C(=O)NCC(N)=O)[C@@H](C)O)C(C)C | < 0.5 µM
12 | CC(=O)N[C@@H](CS)C(=O)N[C@@H](C)C(=O)N[C@@H](CC(=O)O)C(=O)N[C@@H](Cc1c[nH]c2ccccc12)C(=O)N[C@H](C(=O)N[C@@H](CS)C(=O)N[C@@H](Cc1ccc(O)cc1)C(=O)N[C@@H](Cc1c[nH]c2ccccc12)C(=O)N[C@@H](Cc1cnc[nH]1)C(=O)N[C@@H](CCCCN)C(=O)N[C@@H](Cc1ccccc1)C(=O)NCC(=O)O)C(C)C | > 1 µM
13 | CC(=O)N[C@@H](CS)C(=O)N[C@@H](C)C(=O)N[C@@H](CC(=O)O)C(=O)N[C@@H](Cc1c[nH]c2ccccc12)C(=O)N[C@H](C(=O)N[C@@H](CS)C(=O)N[C@@H](Cc1ccc(O)cc1)C(=O)N[C@@H](Cc1c[nH]c2ccccc12)C(=O)N[C@@H](Cc1cnc[nH]1)C(=O)N[C@H](C(=O)N[C@@H](CCCCN)C(=O)NCC(=O)O)[C@@H](C)O)C(C)C | > 1 µM
14 | CC(=O)N[C@@H](CS)C(=O)N[C@@H](CCC(N)=O)C(=O)N1CCC[C@H]1C(=O)N[C@@H](Cc1c[nH]c2ccccc12)C(=O)N[C@@H](CCC(N)=O)C(=O)N[C@@H](CS)C(=O)N[C@@H](Cc1ccc(O)cc1)C(=O)N[C@@H](Cc1c[nH]c2ccccc12)C(=O)N[C@@H](CCC(C)C)C(=O)N[C@@H](CCC(=O)O)C(=O)N[C@@H](CC(N)=O)C(=O)NCC(N)=O (Ac-CQPWQCYW[hLeu]ENG-NH2) | > 10 µM
15 | CC(=O)N[C@@H](CS)C(=O)N[C@@H](C)C(=O)N[C@@H](CC(=O)O)C(=O)N[C@@H](Cc1c[nH]c2ccccc12)C(=O)N[C@H](C(=O)N[C@@H](CS)C(=O)N[C@@H](Cc1ccc(O)cc1)C(=O)N[C@@H](Cc1c[nH]c2ccccc12)C(=O)N[C@@H](CCCN)C(=O)N[C@@](C)(CC(C)C)C(=O)N[C@@H](Cc1ccccc1)C(=O)NCC(=O)NCCOCC(=O)N[C@H](CCCCN)C(N)=O)C(C)C | 6 µM
16 | CC(=O)N[C@@H](CS)C(=O)N[C@@H](CCC(N)=O)C(=O)N[C@H](C(=O)N[C@@H](Cc1c[nH]c2ccccc12)C(=O)N[C@@H](CCC(N)=O)C(=O)N[C@@H](CS)C(=O)N[C@@H](Cc1ccc(O)cc1)C(=O)N[C@@H](Cc1c[nH]c2ccccc12)C(=O)N[C@@H](CCCNC(=N)N)C(=O)N(C)[C@@H](CCCNC(=N)N)C(=O)N[C@@H](CC(N)=O)C(=O)NCC(=O)NCCOCC(=O)N[C@H](CCCCN)C(N)=O)[C@@H](C)O | > 1 µM
17 | C[C@@H](O)[C@H](NC(=O)[C@H](CCC(N)=O)NC(=O)[C@@H](N)CS)C(=O)N[C@@H](Cc1c[nH]c2ccccc12)C(=O)N[C@@H](CCC(N)=O)C(=O)N[C@@H](CS)C(=O)N[C@@H](Cc1ccc(O)cc1)C(=O)N1Cc2ccccc2C[C@H]1C(=O)N[C@@H](CCCN)C(=O)N[C@@H](CCCCN)C(=O)N[C@@H](Cc1ccccc1)C(=O)NCC(=O)NCCOCC(=O)N[C@H](CCCCN)C(N)=O | > 30 µM
18 | CC(=O)N[C@@H](CS)C(=O)N[C@@H](C)C(=O)N[C@@H](CC(=O)O)C(=O)N[C@@H](Cc1c[nH]c2ccccc12)C(=O)N[C@H](C(=O)N[C@@H](CS)C(=O)N[C@@H](Cc1ccc(O)cc1)C(=O)N[C@@H](Cc1cccc2ccccc12)C(=O)N[C@@H](Cc1cnc[nH]1)C(=O)NCCOCCC(N)=O)C(C)C | > 1 µM
19 | CC(=O)N[C@@H](CS)C(=O)N[C@@H](CCC(N)=O)C(=O)N[C@H](C(=O)N[C@@H](Cc1c[nH]c2ccccc12)C(=O)N[C@@H](CCC(N)=O)C(=O)N[C@@H](CS)C(=O)N[C@@H](Cc1ccc(O)cc1)C(=O)N[C@@H](Cc1c[nH]c2ccccc12)C(=O)N[C@H](CCCNC(=N)N)C(=O)N[C@H](CCC(=O)O)C(=O)N[C@@H](CC(N)=O)C(=O)NCC(=O)NCCOCC(=O)N[C@H](CCCCN)C(N)=O)[C@@H](C)O | > 1 µM
20 | CC(=O)N[C@H]1CCSC[C@@H](C(=O)N[C@@H](Cc2ccc(OCCN)cc2)C(=O)N[C@@H](Cc2ccc3ccccc3c2)C(=O)N[C@@](C)(CCCCN)C(=O)N[C@@H](CCC(=O)O)C(=O)N[C@@H](CC(N)=O)C(=O)NCC(N)=O)NC(=O)[C@H](CCC(N)=O)NC(=O)[C@@H]2Cc3c([nH]c4ccccc34)CN2C(=O)[C@H]([C@@H](C)O)NC(=O)[C@H](CCC(N)=O)NC1=O | 0.1 to 1 µM
